Tests used:
Format in all cases: in vivo
[1] = test system: redroot pigweed (Amaranthus retroflexus, AMARE); assay: Pre-emerge test, greenhouse herbicide activity screening; settings: pre-emerge, 14 days after application, rating scale 0-100
Method in brief: (§1)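 Herbicidal damage is scored 0 (none) to 100 (complete plant death) two weeks after a simulated field spray. Rates span 15–1000 g ai/ha, delivered in acetone at 187 l/ha. For post-emergence treatments, plants have 2–3 leaves and the spray carries 0.25% v/v non-ionic surfactant.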

[2] = test system: johnsongrass (Sorghum halepense, SORHA); assay: as above; settings: pre-emerge, 14 days after application, rating scale 0-100
Method in brief: (§2)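 Sandy loam pots; pre-emerge: sown 1 d pre-spray, surface-watered after, then bottom-watered. Post-emerge: sown 8–21 d before, 2–3 leaf stage, + 0.25% v/v NIS, bottom-watered. Acetone, 187 l/ha track spray, 15–1000 g ai/ha. 0–100 injury score, day 14.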

[3] = test system: ivyleaf morningglory (Ipomoea hederacea, IPOHE); assay: as above; settings: pre-emerge, 14 days after application, rating scale 0-100
Method in brief: as §2

[4] = test system: large crabgrass (Digitaria sanguinalis, DIGSA); assay: as above; settings: pre-emerge, 14 days after application, rating scale 0-100
Method in brief: as §2

[5] = test system: lambsquarters (Chenopodium album, CHEAL); assay: as above; settings: pre-emerge, 14 days after application, rating scale 0-100
Method in brief: as §2

[6] = test system: green foxtail (Setaria viridis, SETVI); assay: as above; settings: pre-emerge, 14 days after application, rating scale 0-100
Method in brief: as §2

[7] = test system: sicklepod (Cassia obtusifolia, CASOB); assay: as above; settings: pre-emerge, 14 days after application, rating scale 0-100
Method in brief: as §2

[8] = test system: barnyardgrass (Echinochloa crus-galli, ECHCG); assay: as above; settings: pre-emerge, 14 days after application, rating scale 0-100
Method in brief: as §2

[9] = test system: velvetleaf (Abutilon theophrasti, ABUTH); assay: as above; settings: pre-emerge, 14 days after application, rating scale 0-100
Method in brief: as §2

[10] = test system: field corn (Zea mays L., var. Dekalb 535, CORN); assay: Post-emerge test, crop safety; settings: post-emerge, 14 days after application, rating scale 0-100
Method in brief: as §2

[11] = test system: upland rice (Oryza sp., var. Tebonnet, RICE); assay: Post-emerge test, crop safety; settings: post-emerge, 14 days after application, rating scale 0-100
Method in brief: as §2

[12] = test system: johnsongrass (Sorghum halepense, SORHA); assay: Post-emerge test, greenhouse herbicide activity screening; settings: post-emerge, 14 days after application, rating scale 0-100
Method in brief: (§3)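 Visual ratings on a 0-100 scale (0 no damage, 100 all plants dead) were taken at 14 days after treatment. Rates of 15-1000 g ai/ha in acetone, 187 l/ha, were sprayed onto soil one day after planting (pre-emerge) or onto 2-3 leaf plants with 0.25% v/v surfactant (post-emerge).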

[13] = test system: ivyleaf morningglory (Ipomoea hederacea, IPOHE); assay: as above; settings: post-emerge, 14 days after application, rating scale 0-100
Method in brief: as §3

[14] = test system: large crabgrass (Digitaria sanguinalis, DIGSA); assay: as above; settings: post-emerge, 14 days after application, rating scale 0-100
Method in brief: as §3

[15] = test system: lambsquarters (Chenopodium album, CHEAL); assay: as above; settings: post-emerge, 14 days after application, rating scale 0-100
Method in brief: as §3

[16] = test system: redroot pigweed (Amaranthus retroflexus, AMARE); assay: as above; settings: post-emerge, 14 days after application
Method in brief: as §3

[17] = test system: green foxtail (Setaria viridis, SETVI); assay: as above; settings: post-emerge, 14 days after application, rating scale 0-100
Method in brief: as §3

[18] = test system: sicklepod (Cassia obtusifolia, CASOB); assay: as above; settings: post-emerge, 14 days after application, rating scale 0-100
Method in brief: as §3

[19] = test system: barnyardgrass (Echinochloa crus-galli, ECHCG); assay: as above; settings: post-emerge, 14 days after application, rating scale 0-100
Method in brief: as §3

[20] = test system: velvetleaf (Abutilon theophrasti, ABUTH); assay: as above; settings: post-emerge, 14 days after application, rating scale 0-100
Method in brief: as §3

[21] = test system: field corn (Zea mays L., var. Dekalb 535, CORN); assay: Pre-emerge test, crop safety; settings: pre-emerge, 14 days after application, rating scale 0-100
Method in brief: as §1

[22] = test system: upland rice (Oryza sp., var. Tebonnet, RICE); assay: Pre-emerge test, crop safety; settings: pre-emerge, 14 days after application, rating scale 0-100
Method in brief: as §1

[23] = 63 g ai/ha, rating scale 0-100 (0 no damage, 100 complete death)
[24] = 250 g ai/ha, rating scale 0-100

COc1c(Cl)cc(F)c(-n2c(=O)cc(C(F)(F)F)n(C)c2=O)c1NN=CC1CC1 [Compound 15-11]
phytotoxicity rating AMARE ([1]; 63 g ai/ha): 100 | phytotoxicity rating AMARE ([1]; 250 g ai/ha): 100 | phytotoxicity rating SORHA ([2]; 63 g ai/ha): 100 | phytotoxicity rating SORHA ([2]; 250 g ai/ha): 100 | phytotoxicity rating IPOHE ([3]; 63 g ai/ha): 100 | phytotoxicity rating IPOHE ([3]; 250 g ai/ha): 100 | phytotoxicity rating DIGSA ([4]; 63 g ai/ha): 100 | phytotoxicity rating DIGSA ([4]; 250 g ai/ha): 100 | phytotoxicity rating CHEAL ([5]; 63 g ai/ha): 100 | phytotoxicity rating CHEAL ([5]; 250 g ai/ha): 100 | phytotoxicity rating SETVI ([6]; 63 g ai/ha): 100 | phytotoxicity rating SETVI ([6]; 250 g ai/ha): 100 | phytotoxicity rating CASOB ([7]; 63 g ai/ha): 100 | phytotoxicity rating CASOB ([7]; 250 g ai/ha): 100 | phytotoxicity rating ECHCG ([8]; 63 g ai/ha): 100 | phytotoxicity rating ECHCG ([8]; 250 g ai/ha): 100 | phytotoxicity rating ABUTH ([9]; 63 g ai/ha): 100 | phytotoxicity rating ABUTH ([9]; 250 g ai/ha): 100 | Post-emerge Herbicidal Activity CORN (crop damage rating) ([10]; 63 g ai/ha): 45 | Post-emerge Herbicidal Activity CORN (crop damage rating) ([10]; 250 g ai/ha): 85 | Post-emerge Herbicidal Activity RICE (crop damage rating) ([11]; 63 g ai/ha): 65 | Post-emerge Herbicidal Activity RICE (crop damage rating) ([11]; 250 g ai/ha): 99 | Post-emerge Herbicidal Activity SORHA (phytotoxicity rating) ([12]; 63 g ai/ha): 50 | Post-emerge Herbicidal Activity SORHA (phytotoxicity rating) ([12]; 250 g ai/ha): 99 | Post-emerge Herbicidal Activity IPOHE (phytotoxicity rating) ([13]; 63 g ai/ha): 100 | Post-emerge Herbicidal Activity IPOHE (phytotoxicity rating) ([13]; 250 g ai/ha): 100 | Post-emerge Herbicidal Activity DIGSA (phytotoxicity rating) ([14]; 63 g ai/ha): 50 | Post-emerge Herbicidal Activity DIGSA (phytotoxicity rating) ([14]; 250 g ai/ha): 95 | Post-emerge Herbicidal Activity CHEAL (phytotoxicity rating) ([15]; 63 g ai/ha): 100 | Post-emerge Herbicidal Activity CHEAL (phytotoxicity rating) ([15]; 250 g ai/ha): 100 | Post-emerge Herbicidal Activity AMARE (phytotoxicity rating) [16, 23]: 95 | Post-emerge Herbicidal Activity AMARE (phytotoxicity rating) [16, 24]: 100 | Post-emerge Herbicidal Activity SETVI (phytotoxicity rating) ([17]; 63 g ai/ha): 40 | Post-emerge Herbicidal Activity SETVI (phytotoxicity rating) ([17]; 250 g ai/ha): 80 | Post-emerge Herbicidal Activity CASOB (phytotoxicity rating) ([18]; 63 g ai/ha): 90 | Post-emerge Herbicidal Activity CASOB (phytotoxicity rating) ([18]; 250 g ai/ha): 100 | Post-emerge Herbicidal Activity ECHCG (phytotoxicity rating) ([19]; 63 g ai/ha): 50 | Post-emerge Herbicidal Activity ECHCG (phytotoxicity rating) ([19]; 250 g ai/ha): 99 | Post-emerge Herbicidal Activity ABUTH (phytotoxicity rating) ([20]; 63 g ai/ha): 100 | Post-emerge Herbicidal Activity ABUTH (phytotoxicity rating) ([20]; 250 g ai/ha): 100 | phytotoxicity rating CORN ([21]; 63 g ai/ha): 100 | phytotoxicity rating CORN ([21]; 250 g ai/ha): 100 | phytotoxicity rating RICE ([22]; 63 g ai/ha): 100 | phytotoxicity rating RICE ([22]; 250 g ai/ha): 100

COc1c(Cl)cc(F)c(-n2c(=O)cc(C(F)(F)F)n(C)c2=O)c1SC [Compound 17-1, 3-(4-chloro-6-fluoro-3-methoxy-2-thiomethylphenyl)l-methyl-6-trifluoromethyl-2,4(1H, 3H)-pyrimidinedione]
phytotoxicity rating AMARE ([1]; 63 g ai/ha): 30 | phytotoxicity rating AMARE ([1]; 250 g ai/ha): 90 | phytotoxicity rating SORHA ([2]; 63 g ai/ha): 0 | phytotoxicity rating SORHA ([2]; 250 g ai/ha): 60 | phytotoxicity rating IPOHE ([3]; 63 g ai/ha): 10 | phytotoxicity rating IPOHE ([3]; 250 g ai/ha): 70 | phytotoxicity rating DIGSA ([4]; 63 g ai/ha): 20 | phytotoxicity rating DIGSA ([4]; 250 g ai/ha): 80 | phytotoxicity rating CHEAL ([5]; 63 g ai/ha): 90 | phytotoxicity rating CHEAL ([5]; 250 g ai/ha): 100 | phytotoxicity rating SETVI ([6]; 63 g ai/ha): 50 | phytotoxicity rating SETVI ([6]; 250 g ai/ha): 80 | phytotoxicity rating CASOB ([7]; 63 g ai/ha): 0 | phytotoxicity rating CASOB ([7]; 250 g ai/ha): 80 | phytotoxicity rating ECHCG ([8]; 63 g ai/ha): 0 | phytotoxicity rating ECHCG ([8]; 250 g ai/ha): 70 | phytotoxicity rating ABUTH ([9]; 63 g ai/ha): 95 | phytotoxicity rating ABUTH ([9]; 250 g ai/ha): 100 | Post-emerge Herbicidal Activity CORN (crop damage rating) ([10]; 63 g ai/ha): 0 | Post-emerge Herbicidal Activity CORN (crop damage rating) ([10]; 250 g ai/ha): 5 | Post-emerge Herbicidal Activity RICE (crop damage rating) ([11]; 63 g ai/ha): 0 | Post-emerge Herbicidal Activity RICE (crop damage rating) ([11]; 250 g ai/ha): 0 | Post-emerge Herbicidal Activity SORHA (phytotoxicity rating) ([12]; 63 g ai/ha): 0 | Post-emerge Herbicidal Activity SORHA (phytotoxicity rating) ([12]; 250 g ai/ha): 0 | Post-emerge Herbicidal Activity IPOHE (phytotoxicity rating) ([13]; 63 g ai/ha): 80 | Post-emerge Herbicidal Activity IPOHE (phytotoxicity rating) ([13]; 250 g ai/ha): 80 | Post-emerge Herbicidal Activity DIGSA (phytotoxicity rating) ([14]; 63 g ai/ha): 0 | Post-emerge Herbicidal Activity DIGSA (phytotoxicity rating) ([14]; 250 g ai/ha): 0 | Post-emerge Herbicidal Activity CHEAL (phytotoxicity rating) ([15]; 63 g ai/ha): 30 | Post-emerge Herbicidal Activity CHEAL (phytotoxicity rating) ([15]; 250 g ai/ha): 60 | Post-emerge Herbicidal Activity AMARE (phytotoxicity rating) [16, 23]: 10 | Post-emerge Herbicidal Activity AMARE (phytotoxicity rating) [16, 24]: 30 | Post-emerge Herbicidal Activity SETVI (phytotoxicity rating) ([17]; 63 g ai/ha): 0 | Post-emerge Herbicidal Activity SETVI (phytotoxicity rating) ([17]; 250 g ai/ha): 0 | Post-emerge Herbicidal Activity CASOB (phytotoxicity rating) ([18]; 63 g ai/ha): 20 | Post-emerge Herbicidal Activity CASOB (phytotoxicity rating) ([18]; 250 g ai/ha): 10 | Post-emerge Herbicidal Activity ECHCG (phytotoxicity rating) ([19]; 63 g ai/ha): 0 | Post-emerge Herbicidal Activity ECHCG (phytotoxicity rating) ([19]; 250 g ai/ha): 0 | Post-emerge Herbicidal Activity ABUTH (phytotoxicity rating) ([20]; 63 g ai/ha): 70 | Post-emerge Herbicidal Activity ABUTH (phytotoxicity rating) ([20]; 250 g ai/ha): 70 | phytotoxicity rating CORN ([21]; 63 g ai/ha): 0 | phytotoxicity rating CORN ([21]; 250 g ai/ha): 10 | phytotoxicity rating RICE ([22]; 63 g ai/ha): 10 | phytotoxicity rating RICE ([22]; 250 g ai/ha): 30
